Among the data in patent US10538491B2, “4,5-substituted picolinamide and picolinonitrile metabotropic glutamate receptor 2 negative allosteric modulators” (Vanderbilt University, priority 2015, dated 2020) are IC50 and remaining activity values, retold here.

Broadly, the IC50 is the concentration needed to halve the response being measured. Low readings indicate higher potency, high ones lower potency.

For this experiment, the target named is rat mGlu2 (Rattus norvegicus (Rat), UniProt P31421). In words: mGlu2 Ca2+ flux assay. It is filed as cell-based. To be noted: for IC50: Gα15 HEK293 cells stably expressing rat mGlu2, glutamate EC80, >10,000 = no plateau, >30,000 = no measurable activity; for remaining activity at 30 µM: amplitude of response in the presence of 30 μM test compound as percentage of maximal response to glutamate, read-out: rat mGlu2 Glu max. As for the experimental part:
Gα15 HEK293 cells stably expressing rat mGlu2 were plated in black-walled, clear-bottomed, poly-D-lysine coated 384-well plates in 20 μL of assay medium (DMEM containing 10% dialyzed FBS, 20 mM HEPES, and 1 mM sodium pyruvate) at a density of 12K cells/well. The cells were grown overnight at 37° C. in the presence of 5% CO2. The next day, medium was removed and the cells incubated with 20 μL of 2.3 μM Fluo-4, AM prepared as a 2.3 mM stock in DMSO and mixed in a 1:1 ratio with 10% (w/v) pluronic acid F-127 and diluted in assay buffer (Hank's balanced salt solution, 20 mM HEPES, and 2.5 mM probenecid) for 45 minutes at 37° C. Dye was removed, 20 μL of assay buffer was added, and the plate was incubated for 5 minutes at room temperature.
Ca^2+ flux was measured using the Functional Drug Screening System (FDSS7000, Hamamatsu, Japan). After establishment of a fluorescence baseline for about 3 seconds, the compounds of the present invention were added to the cells, and the response in cells was measured. 2.3 minutes later an EC20 concentration of the mGlu2 receptor agonist glutamate was added to the cells, and the response of the cells was measured for 1.9 minutes; an EC80 concentration of agonist was added and readings taken for an additional 1.7 minutes. All test compounds were dissolved and diluted to a concentration of 10 mM in 100% DMSO. Compounds were then serially diluted 1:3 in DMSO into 10 point concentration response curves, transferred to daughter plates, and further diluted into assay buffer to a 2× stock. Calcium fluorescence measures were recorded as fold over basal fluorescence; raw data was then normalized to the maximal response to glutamate. Antagonism of the agonist response of the mGlu2 receptor in the present invention was observed as a decrease in response to nearly maximal concentrations of glutamate in the presence of compound compared to the response to glutamate in the absence of compound.
The raw data file containing all time points was used as the data source in the analysis template. This was saved by the FDSS as a tab-delimited text file. Data were normalized using a static ratio function (F/F0) for each measurement of the total 360 values per well divided by each well's initial value. Data were then reduced to peak amplitudes (Max−Initial Min) using a time range that starts approximately 3 seconds prior to the glutamate EC80 addition and continues for approximately 90 seconds. This is sufficient time to capture the peak amplitude of the cellular calcium response. Individual amplitudes were expressed as % ECMax by multiplying each amplitude by 100 and then dividing the product by the mean of the amplitudes derived from the glutamate ECMax-treated wells. IC50 values for test compounds were generated by fitting the normalized values versus the log of the test compound concentration (in mol/L) using a 4 parameter logistic equation where none of the parameters were fixed. Each of the three values collected at each concentration of test compound were weighted evenly.
For NAMs, potency (IC50) and maximum response (% Glu Max), i.e. the amplitude of response in the presence of 30 μM test compound as a percentage of the maximal response to glutamate, are reported. […] Compounds with no measurable activity are designated as “>30,000 nM” since the top concentration of compound tested in the assay is 30 μM.

Sequence of rat mGlu2 (P31421 19-872): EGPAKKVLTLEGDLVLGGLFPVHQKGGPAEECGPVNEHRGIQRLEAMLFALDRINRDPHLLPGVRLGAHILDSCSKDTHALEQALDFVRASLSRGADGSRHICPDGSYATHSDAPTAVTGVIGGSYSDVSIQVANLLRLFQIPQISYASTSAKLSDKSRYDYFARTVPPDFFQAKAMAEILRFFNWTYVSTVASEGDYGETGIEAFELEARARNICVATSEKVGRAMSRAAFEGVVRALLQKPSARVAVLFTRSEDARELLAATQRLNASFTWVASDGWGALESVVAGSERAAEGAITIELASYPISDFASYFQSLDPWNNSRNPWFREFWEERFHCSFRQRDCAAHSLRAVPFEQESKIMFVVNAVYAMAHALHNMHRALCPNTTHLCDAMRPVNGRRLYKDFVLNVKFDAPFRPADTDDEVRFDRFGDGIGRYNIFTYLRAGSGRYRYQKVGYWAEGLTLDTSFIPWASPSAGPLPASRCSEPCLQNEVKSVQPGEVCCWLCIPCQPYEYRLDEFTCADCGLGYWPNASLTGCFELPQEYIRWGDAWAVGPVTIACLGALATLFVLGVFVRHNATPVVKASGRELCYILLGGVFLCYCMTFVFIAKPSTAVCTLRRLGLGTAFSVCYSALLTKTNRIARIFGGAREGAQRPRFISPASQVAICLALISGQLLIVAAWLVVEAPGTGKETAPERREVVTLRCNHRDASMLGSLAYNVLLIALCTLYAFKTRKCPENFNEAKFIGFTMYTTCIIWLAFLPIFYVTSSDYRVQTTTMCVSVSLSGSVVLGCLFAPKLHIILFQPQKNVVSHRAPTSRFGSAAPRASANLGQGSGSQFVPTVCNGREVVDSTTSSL

Take `COc1cc(COc2cnc(C(N)=O)cc2-c2ccc(F)cc2)ccn1` [Compound 46, 4-(4-fluorophenyl)-5-((2-methoxypyridin-4-yl)methoxy)picolinamide]: half-maximal inhibition (IC50) required 204 nM and the remaining activity at 30 µM was determined as 2.17%.

Take `CC(Oc1cnc(C(N)=O)cc1-c1ccc(F)cc1)c1cccnc1` (centres unmarked) [Compound 47, 4-(4-fluorophenyl)-5-(1-(pyridin-3-yl)ethoxy)picolinamide]: inhibition was half-maximal at 2710 nM (IC50) and the remaining activity at 30 µM was found to be 0.41%.

As for `CC(Oc1cnc(C(N)=O)cc1-c1ccc(F)cc1)c1ccncc1` (centres unmarked) [Compound 48, 4-(4-fluorophenyl)-5-(1-(pyridin-4-yl)ethoxy)picolinamide], inhibition was half-maximal at 504 nM (IC50) and the remaining activity at 30 µM amounted to 1.4%.

Turning to `NC(=O)c1cc(-c2ccc(F)cc2)c(OCc2cccnn2)cn1` [Compound 49, 4-(4-fluorophenyl)-5-(pyridazin-3-ylmethoxy)picolinamide], the IC50 was 1470 nM and the remaining activity at 30 µM was -0.08%.

Consider `NC(=O)c1cc(-c2ccc(F)cc2)c(OCc2ccc3nccn3c2)cn1` [Compound 50, 4-(4-fluorophenyl)-5-(imidazo[1,2-a]pyridin-6-ylmethoxy)picolinamide], for which half-maximal inhibition (IC50) required 129 nM and the remaining activity at 30 µM worked out at 1.41%.

With `NC(=O)c1cc(-c2ccc(F)cc2)c(OCc2cncs2)cn1` [Compound 51, 4-(4-fluorophenyl)-5-(thiazol-5-ylmethoxy)picolinamide], half-maximal inhibition (IC50) required 263 nM and the remaining activity at 30 µM was 1.01%.

With `Cn1ccc(COc2cnc(C(N)=O)cc2-c2ccc(F)cc2)n1` [Compound 52, 4-(4-fluorophenyl)-5-((1-methyl-1H-pyrazol-3-yl)methoxy)picolinamide], the IC50 was 66 nM and the remaining activity at 30 µM turned out to be 0.93%.

For the compound `Cn1cc(COc2cnc(C(N)=O)cc2-c2ccc(F)cc2)cn1` [Compound 53, 4-(4-fluorophenyl)-5-((1-methyl-1H-pyrazol-4-yl)methoxy)picolinamide], the IC50 was 1000 nM and the remaining activity at 30 µM was -0.46%.

Take `NC(=O)c1cc(-c2ccc(F)cc2)c(OCCOc2cccnc2)cn1` [Compound 54, 4-(4-fluorophenyl)-5-(2-(pyridin-3-yloxy)ethoxy)picolinamide]: the 50% inhibitory concentration (IC50) came to 1370 nM and the remaining activity at 30 µM came out at 1.35%.

With `CN(CCOc1cnc(C(N)=O)cc1-c1ccc(F)cc1)c1ccnc(C(F)(F)F)c1` [Compound 55, 4-(4-fluorophenyl)-5-(2-(methyl(2-(trifluoromethyl)pyridin-4-yl)amino)ethoxy)picolinamide], it took 1580 nM to reach half-maximal inhibition (IC50) and the remaining activity at 30 µM turned out to be 4.02%.

As for `NC(=O)c1cc(-c2ccc(F)cc2)c(OC2CCN(c3ccnc(C(F)(F)F)c3)CC2)cn1` [Compound 56, 4-(4-fluorophenyl)-5-((1-(2-(trifluoromethyl)pyridin-4-yl)piperidin-4-yl)oxy)picolinamide], 4190 nM corresponded to half-maximal inhibition (IC50) and the remaining activity at 30 µM is 4.5%.

In the case of `NC(=O)c1cc(-c2ccc(F)cc2)c(OC2CCN(c3ccnc(C(F)(F)F)c3)C2)cn1` (centres unmarked) [Compound 57, 4-(4-fluorophenyl)-5-((1-(2-(trifluoromethyl)pyridin-4-yl)pyrrolidin-3-yl)oxy)picolinamide], half-maximal inhibition (IC50) was put at 2120 nM and the remaining activity at 30 µM was 2.39%.

`NC(=O)c1cc(-c2ccc(F)cc2)c(OC2CN(c3ccnc(C(F)(F)F)c3)C2)cn1` [Compound 58, 4-(4-fluorophenyl)-5-((1-(2-(trifluoromethyl)pyridin-4-yl)azetidin-3-yl)oxy)picolinamide]: half-maximal inhibition (IC50) was put at 4140 nM and the remaining activity at 30 µM is 4.3%.

As to `Cc1ccc(OC(C)COc2cnc(C#N)cc2-c2ccc(F)cc2)cn1` (centres unmarked) [Compound 62, 4-(4-fluorophenyl)-5-(2-((6-methylpyridin-3-yl)oxy)propoxy)picolinonitrile], the IC50 amounted to 4630 nM and the remaining activity at 30 µM worked out at 35.8%.

Turning to `CC(COc1cnc(C#N)cc1-c1ccc(F)cc1)Oc1ccnc(C(F)(F)F)c1` (centres unmarked) [Compound 63, 4-(4-fluorophenyl)-5-(2-((2-(trifluoromethyl)pyridin-4-yl)oxy)propoxy)picolinonitrile], the IC50 is over 10000 nM and the remaining activity at 30 µM amounted to 30.7%.

On to `Cc1ncc(OCCCOc2cnc(C#N)cc2-c2ccc(F)cc2)cn1` [Compound 64, 4-(4-fluorophenyl)-5-(3-((2-methylpyrimidin-5-yl)oxy)propoxy)picolinonitrile], for which the IC50 was over 30000 nM.

Turning to `N#Cc1cc(-c2ccc(F)cc2)c(OCCCOc2cccnc2)cn1` [Compound 65, 4-(4-fluorophenyl)-5-(3-(pyridin-3-yloxy)propoxy)picolinonitrile], the IC50 is over 10000 nM and the remaining activity at 30 µM was found to be 68.8%.

As for `N#Cc1cc(-c2ccc(F)cc2)c(OCCCOc2ccc(C(F)(F)F)nc2)cn1` [Compound 66, 4-(4-fluorophenyl)-5-(3-((6-(trifluoromethyl)pyridin-3-yl)oxy)propoxy)picolinonitrile], the half-inhibitory concentration (IC50) is over 30000 nM.

Compound `N#Cc1cc(-c2ccc(F)cc2)c(OCCCOc2ccnc(C(F)(F)F)c2)cn1` [Compound 67, 4-(4-fluorophenyl)-5-(3-((2-(trifluoromethyl)pyridin-4-yl)oxy)propoxy)picolinonitrile] had an IC50 of over 30000 nM.

In the case of `Cc1ccc(OCCCOc2cnc(C#N)cc2-c2ccc(F)cc2)cn1` [Compound 68, 4-(4-fluorophenyl)-5-(3-((6-methylpyridin-3-yl)oxy)propoxy)picolinonitrile], the IC50 is over 10000 nM and the remaining activity at 30 µM was 29%.

Turning to `C[C@@H]1CN(CCOc2cnc(C#N)cc2-c2ccc(F)cc2)C[C@H](C)O1` [Compound 70, 5-(2-((cis)-2,6-Dimethylmorpholino)ethoxy)-4-(4-fluorophenyl)picolinonitrile], the IC50 was over 30000 nM.

As for `N#Cc1cc(-c2ccc(F)cc2)c(OCCCN2CCOCC2)cn1` [Compound 71, 4-(4-fluorophenyl)-5-(3-morpholinopropoxy)picolinonitrile], the IC50 was over 30000 nM.

Take `CC1CN(CCCOc2cnc(C#N)cc2-c2ccc(F)cc2)CCO1` (centres unmarked) [Compound 72, 4-(4-fluorophenyl)-5-(3-(2-methylmorpholino)propoxy)picolinonitrile]: the IC50 is over 30000 nM.

Compound `CC1(C)CN(CCCOc2cnc(C#N)cc2-c2ccc(F)cc2)CCO1` [Compound 73, 5-(3-(2,2-dimethylmorpholino)propoxy)-4-(4-fluorophenyl)picolinonitrile] had an IC50 of over 30000 nM.

With `N#Cc1cc(-c2ccc(F)cc2)c(OCCCN2CCC(F)(F)CC2)cn1` [Compound 74, 5-(3-(4,4-difluoropiperidin-1-yl)propoxy)-4-(4-fluorophenyl)picolinonitrile], the IC50 was over 10000 nM and the remaining activity at 30 µM stood at 49.6%.

As for `Cc1ncc(OCCOc2cnc(C#N)cc2-c2ccc(F)cc2)cn1` [Compound 75, 4-(4-Fluorophenyl)-5-(2-((2-methylpyrimidin-5-yl)oxy)ethoxy)picolinonitrile], the IC50 is over 10000 nM and the remaining activity at 30 µM is 30.2%.

For `CN(CCOCc1cncc(F)c1)c1cnc(C#N)cc1-c1ccc(F)cc1` [Compound 76, 4-(4-Fluorophenyl)-5-((2-((5-fluoropyridin-3-yl)methoxy)ethyl)(methyl)amino)picolinonitrile], the IC50 is over 10000 nM and the remaining activity at 30 µM is 33.3%.
